Results taken from PubChem BioAssay (NCI).
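These data come from cells grown in 96-well plates and exposed to compound for 48 hours at five concentrations. GI50 = concentration required for 50% inhibition of growth. TGI marks complete inhibition of growth.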

Columns and labels:
Assay in all cases: NCI-60 cell line screen, 48 h
MDA-MB-231 breast = system: MDA-MB-231 breast
SK-MEL-5 melanoma = system: SK-MEL-5 melanoma
T-47D breast = system: T-47D breast
UACC-62 melanoma = system: UACC-62 melanoma
SF-295 CNS = system: SF-295 CNS
HL-60(TB) leukemia = system: HL-60(TB) leukemia
U251 CNS = system: U251 CNS
HCT-116 colon = system: HCT-116 colon
UO-31 renal = system: UO-31 renal
DU-145 prostate = system: DU-145 prostate
HCC-2998 colon = system: HCC-2998 colon
NCI-H23 lung = system: NCI-H23 lung
A549 NSCLC = system: A549 NSCLC
SF-268 CNS = system: SF-268 CNS
SNB-75 CNS = system: SNB-75 CNS
HOP-62 NSCLC = system: HOP-62 NSCLC
NCI-H522 lung = system: NCI-H522 lung
TK-10 renal = system: TK-10 renal
OVCAR-4 ovarian = system: OVCAR-4 ovarian
RXF 393 renal = system: RXF 393 renal
MCF7 breast = system: MCF7 breast
CCRF-CEM leukemia = system: CCRF-CEM leukemia
OVCAR-5 ovarian = system: OVCAR-5 ovarian
OVCAR-8 ovarian = system: OVCAR-8 ovarian
ACHN renal = system: ACHN renal
PC-3 prostate = system: PC-3 prostate
786-0 renal = system: 786-0 renal
MOLT-4 leukemia = system: MOLT-4 leukemia
M14 melanoma = system: M14 melanoma
IGROV1 ovarian = system: IGROV1 ovarian
HT29 colon = system: HT29 colon
RPMI-8226 leukemia = system: RPMI-8226 leukemia
CAKI-1 renal = system: CAKI-1 renal
NCI-H460 lung = system: NCI-H460 lung
MDA-MB-435 = system: MDA-MB-435
K-562 leukemia = system: K-562 leukemia
SF-539 CNS = system: SF-539 CNS
BT-549 breast = system: BT-549 breast
COLO 205 colon = system: COLO 205 colon
SW-620 colon = system: SW-620 colon
NCI/ADR-RES ovarian = system: NCI/ADR-RES ovarian
MALME-3M melanoma = system: MALME-3M melanoma
KM12 colon = system: KM12 colon
SR leukemia = system: SR leukemia
LOX IMVI melanoma = system: LOX IMVI melanoma
HS 578T breast = system: HS 578T breast
NCI-H226 lung = system: NCI-H226 lung
SNB-19 CNS = system: SNB-19 CNS
SN12C renal = system: SN12C renal
OVCAR-3 ovarian = system: OVCAR-3 ovarian
A498 renal = system: A498 renal
UACC-257 melanoma = system: UACC-257 melanoma
SK-MEL-2 melanoma = system: SK-MEL-2 melanoma
HCT-15 colon = system: HCT-15 colon
SK-OV-3 ovarian = system: SK-OV-3 ovarian
EKVX NSCLC = system: EKVX NSCLC
HOP-92 NSCLC = system: HOP-92 NSCLC
SK-MEL-28 melanoma = system: SK-MEL-28 melanoma

In the case of `COCCn1cc(-c2nc(-c3cc4cccnc4[nH]3)cs2)c2cc(OC)ccc21`, the GI50 (MDA-MB-231 breast) is reported as 1.76 µM, the TGI (MDA-MB-231 breast) is reported as greater than 79.9 µM and the GI50 (SK-MEL-5 melanoma) is reported as 4.47 µM. For the same molecule, the TGI (SK-MEL-5 melanoma) was 21.4 µM, the GI50 (T-47D breast) was 0.033 µM and the TGI (T-47D breast) was 0.992 µM. For the same molecule, the GI50 (UACC-62 melanoma) was 4.22 µM, the TGI (UACC-62 melanoma) was 31.3 µM and the GI50 (SF-295 CNS) was 2.24 µM. The TGI (SF-295 CNS) was 6.54 µM, the GI50 (HL-60(TB) leukemia) was 2.95 µM and the TGI (HL-60(TB) leukemia) was 13.3 µM. It also gave a GI50 (U251 CNS) of 3.6 µM, a TGI (U251 CNS) greater than 59.3 µM and a GI50 (HCT-116 colon) of 3.49 µM. It also gave a TGI (HCT-116 colon) of 16 µM, a GI50 (UO-31 renal) of 1.84 µM and a TGI (UO-31 renal) of 11 µM. The GI50 (DU-145 prostate) was 3.96 µM, the TGI (DU-145 prostate) was 56.1 µM and the GI50 (HCC-2998 colon) was 3.68 µM. The TGI (HCC-2998 colon) was 97.4 µM, the GI50 (NCI-H23 lung) was 1.5 µM and the TGI (NCI-H23 lung) was 10.8 µM. The GI50 (A549 NSCLC) was 3.79 µM, the TGI (A549 NSCLC) was greater than 100 µM and the GI50 (SF-268 CNS) was 3.82 µM. It also gave a TGI (SF-268 CNS) greater than 100 µM, a GI50 (SNB-75 CNS) of 1.22 µM and a TGI (SNB-75 CNS) of 5.83 µM. The GI50 (HOP-62 NSCLC) was 2.2 µM, the TGI (HOP-62 NSCLC) was 9.36 µM and the GI50 (NCI-H522 lung) was 2.99 µM. The TGI (NCI-H522 lung) was 21 µM, the GI50 (TK-10 renal) was 1.07 µM and the TGI (TK-10 renal) was 10.7 µM. It also gave a GI50 (OVCAR-4 ovarian) of 0.0278 µM, a TGI (OVCAR-4 ovarian) greater than 30.8 µM and a GI50 (RXF 393 renal) of 0.95 µM. For the same molecule, the TGI (RXF 393 renal) was 5.41 µM, the GI50 (MCF7 breast) was 0.0433 µM and the TGI (MCF7 breast) was 2.67 µM. For the same molecule, the GI50 (CCRF-CEM leukemia) was 4.54 µM, the TGI (CCRF-CEM leukemia) was greater than 100 µM and the GI50 (OVCAR-5 ovarian) was 0.524 µM. It also gave a TGI (OVCAR-5 ovarian) greater than 96.4 µM, a GI50 (OVCAR-8 ovarian) of 3.56 µM and a TGI (OVCAR-8 ovarian) of 45.3 µM. It also gave a GI50 (ACHN renal) of 2.61 µM, a TGI (ACHN renal) greater than 100 µM and a GI50 (PC-3 prostate) of 3.13 µM. For the same molecule, the TGI (PC-3 prostate) was 13.3 µM, the GI50 (786-0 renal) was 3.04 µM and the TGI (786-0 renal) was 20.9 µM. For the same molecule, the GI50 (MOLT-4 leukemia) was 4.24 µM, the TGI (MOLT-4 leukemia) was greater than 46.7 µM and the GI50 (M14 melanoma) was 4.8 µM. For the same molecule, the TGI (M14 melanoma) was greater than 100 µM, the GI50 (IGROV1 ovarian) was 0.81 µM and the TGI (IGROV1 ovarian) was greater than 34.5 µM. For the same molecule, the GI50 (HT29 colon) was 3.71 µM, the TGI (HT29 colon) was greater than 81.2 µM and the GI50 (RPMI-8226 leukemia) was 3.94 µM. It also gave a TGI (RPMI-8226 leukemia) greater than 36.2 µM, a GI50 (CAKI-1 renal) of 3.01 µM and a TGI (CAKI-1 renal) greater than 82.4 µM. The GI50 (NCI-H460 lung) was 1.1 µM, the TGI (NCI-H460 lung) was 12.9 µM and the GI50 (MDA-MB-435) was 5.27 µM. The TGI (MDA-MB-435) was greater than 100 µM, the GI50 (K-562 leukemia) was 3.48 µM and the TGI (K-562 leukemia) was greater than 27.3 µM. The GI50 (SF-539 CNS) was 3.39 µM, the TGI (SF-539 CNS) was 42 µM and the GI50 (BT-549 breast) was 1.8 µM. For the same molecule, the TGI (BT-549 breast) was 7.66 µM, the GI50 (COLO 205 colon) was 4.01 µM and the TGI (COLO 205 colon) was 24.7 µM. The GI50 (SW-620 colon) was 4.04 µM, the TGI (SW-620 colon) was greater than 100 µM and the GI50 (NCI/ADR-RES ovarian) was 2.95 µM. For the same molecule, the TGI (NCI/ADR-RES ovarian) was 23.8 µM, the GI50 (MALME-3M melanoma) was 7.99 µM and the TGI (MALME-3M melanoma) was greater than 80.6 µM. It also gave a GI50 (KM12 colon) of 0.203 µM, a TGI (KM12 colon) of 9.38 µM and a GI50 (SR leukemia) of 1.21 µM. The TGI (SR leukemia) was greater than 29.7 µM, the GI50 (LOX IMVI melanoma) was 3.35 µM and the TGI (LOX IMVI melanoma) was 35.1 µM. It also gave a GI50 (HS 578T breast) of 1.99 µM, a TGI (HS 578T breast) of 6.78 µM and a GI50 (NCI-H226 lung) of 1.57 µM. For the same molecule, the TGI (NCI-H226 lung) was 27.6 µM, the GI50 (SNB-19 CNS) was 6.48 µM and the TGI (SNB-19 CNS) was greater than 100 µM. It also gave a GI50 (SN12C renal) of 4.64 µM, a TGI (SN12C renal) greater than 100 µM and a GI50 (OVCAR-3 ovarian) of 4.28 µM. The TGI (OVCAR-3 ovarian) was 21.7 µM, the GI50 (A498 renal) was 1.86 µM and the TGI (A498 renal) was 6.18 µM. It also gave a GI50 (UACC-257 melanoma) of 4.26 µM, a TGI (UACC-257 melanoma) of 9.81 µM and a GI50 (SK-MEL-2 melanoma) of 3.05 µM. The TGI (SK-MEL-2 melanoma) was 12.8 µM, the GI50 (HCT-15 colon) was 2.26 µM and the TGI (HCT-15 colon) was 21.5 µM. For the same molecule, the GI50 (SK-OV-3 ovarian) was 3.04 µM, the TGI (SK-OV-3 ovarian) was 11.6 µM and the GI50 (EKVX NSCLC) was 0.0827 µM. For the same molecule, the TGI (EKVX NSCLC) was 4.43 µM, the GI50 (HOP-92 NSCLC) was 0.387 µM and the TGI (HOP-92 NSCLC) was 2.46 µM. The GI50 (SK-MEL-28 melanoma) was 5.21 µM and the TGI (SK-MEL-28 melanoma) was greater than 100 µM.
With `CN(C)c1ccc(/C=N/NC(=S)Nc2ccccc2)cc1` the TGI (MDA-MB-231 breast) was greater than 100 µM, the TGI (SK-MEL-5 melanoma) was greater than 100 µM and the TGI (T-47D breast) was greater than 100 µM. The TGI (UACC-62 melanoma) was greater than 100 µM, the TGI (SF-295 CNS) was greater than 100 µM and the TGI (U251 CNS) was greater than 100 µM. For the same molecule, the TGI (HCT-116 colon) was greater than 100 µM, the TGI (UO-31 renal) was greater than 100 µM and the TGI (DU-145 prostate) was greater than 100 µM. It also gave a TGI (NCI-H23 lung) greater than 100 µM, a TGI (A549 NSCLC) greater than 100 µM and a TGI (SF-268 CNS) greater than 100 µM. It also gave a TGI (SNB-75 CNS) greater than 100 µM, a TGI (HOP-62 NSCLC) greater than 100 µM and a TGI (NCI-H522 lung) greater than 100 µM. The TGI (TK-10 renal) was greater than 100 µM, the TGI (OVCAR-4 ovarian) was greater than 100 µM and the TGI (RXF 393 renal) was greater than 100 µM. For the same molecule, the TGI (MCF7 breast) was greater than 100 µM, the TGI (CCRF-CEM leukemia) was greater than 100 µM and the TGI (OVCAR-5 ovarian) was greater than 100 µM. For the same molecule, the TGI (OVCAR-8 ovarian) was greater than 100 µM, the TGI (ACHN renal) was greater than 100 µM and the TGI (PC-3 prostate) was greater than 100 µM. For the same molecule, the TGI (786-0 renal) was greater than 100 µM, the TGI (MOLT-4 leukemia) was greater than 100 µM and the TGI (M14 melanoma) was greater than 100 µM. It also gave a TGI (IGROV1 ovarian) greater than 100 µM, a TGI (HT29 colon) greater than 100 µM and a TGI (RPMI-8226 leukemia) greater than 100 µM. The TGI (CAKI-1 renal) was greater than 100 µM, the TGI (NCI-H460 lung) was greater than 100 µM and the TGI (MDA-MB-435) was greater than 100 µM. For the same molecule, the TGI (K-562 leukemia) was greater than 100 µM, the TGI (SF-539 CNS) was greater than 100 µM and the TGI (BT-549 breast) was greater than 100 µM. For the same molecule, the TGI (COLO 205 colon) was greater than 100 µM, the TGI (SW-620 colon) was greater than 100 µM and the TGI (NCI/ADR-RES ovarian) was greater than 100 µM. It also gave a TGI (MALME-3M melanoma) greater than 100 µM, a TGI (KM12 colon) greater than 100 µM and a TGI (SR leukemia) greater than 100 µM. For the same molecule, the TGI (LOX IMVI melanoma) was greater than 100 µM, the TGI (HS 578T breast) was greater than 100 µM and the TGI (NCI-H226 lung) was greater than 100 µM. It also gave a TGI (SNB-19 CNS) greater than 100 µM, a TGI (SN12C renal) greater than 100 µM and a TGI (OVCAR-3 ovarian) greater than 100 µM. It also gave a TGI (A498 renal) greater than 100 µM, a TGI (UACC-257 melanoma) greater than 100 µM and a TGI (SK-MEL-2 melanoma) greater than 100 µM. The TGI (HCT-15 colon) was greater than 100 µM, the TGI (SK-OV-3 ovarian) was greater than 100 µM and the TGI (EKVX NSCLC) was greater than 100 µM. It also gave a TGI (HOP-92 NSCLC) greater than 100 µM and a TGI (SK-MEL-28 melanoma) greater than 100 µM.
